Structures can show the parent of a compound that is named as a salt. Some results are limits rather than exact numbers.

For one assay, the target named is T1, JAK2 (Homo sapiens, UniProt O60674).
T1 construct: purchased Carna Biosciences, Inc
Briefly: JAK tyrosine kinase inhibitory activity in the presence of 1 mM ATP (ELISA), JAK2. The format is biochemical. Put shortly: (§1)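 Kinase reactions ran on streptavidin-coated plates in 15 mM Tris-HCl pH 7.5, 0.01% Tween-20, 1 mM DTT, 30 °C for 1 h. Enzyme was prediluted to 7.5 nM (JAK1) or 0.75 nM (JAK2, JAK3) before addition. Phosphotyrosine was detected with HRP anti-pTyr antibody and TMB at A450.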

Another assay deals with T2, JAK3 (Homo sapiens, UniProt P52333).
T2 construct: purchased Carna Biosciences, Inc
T2 sequence (P52333 1-1124): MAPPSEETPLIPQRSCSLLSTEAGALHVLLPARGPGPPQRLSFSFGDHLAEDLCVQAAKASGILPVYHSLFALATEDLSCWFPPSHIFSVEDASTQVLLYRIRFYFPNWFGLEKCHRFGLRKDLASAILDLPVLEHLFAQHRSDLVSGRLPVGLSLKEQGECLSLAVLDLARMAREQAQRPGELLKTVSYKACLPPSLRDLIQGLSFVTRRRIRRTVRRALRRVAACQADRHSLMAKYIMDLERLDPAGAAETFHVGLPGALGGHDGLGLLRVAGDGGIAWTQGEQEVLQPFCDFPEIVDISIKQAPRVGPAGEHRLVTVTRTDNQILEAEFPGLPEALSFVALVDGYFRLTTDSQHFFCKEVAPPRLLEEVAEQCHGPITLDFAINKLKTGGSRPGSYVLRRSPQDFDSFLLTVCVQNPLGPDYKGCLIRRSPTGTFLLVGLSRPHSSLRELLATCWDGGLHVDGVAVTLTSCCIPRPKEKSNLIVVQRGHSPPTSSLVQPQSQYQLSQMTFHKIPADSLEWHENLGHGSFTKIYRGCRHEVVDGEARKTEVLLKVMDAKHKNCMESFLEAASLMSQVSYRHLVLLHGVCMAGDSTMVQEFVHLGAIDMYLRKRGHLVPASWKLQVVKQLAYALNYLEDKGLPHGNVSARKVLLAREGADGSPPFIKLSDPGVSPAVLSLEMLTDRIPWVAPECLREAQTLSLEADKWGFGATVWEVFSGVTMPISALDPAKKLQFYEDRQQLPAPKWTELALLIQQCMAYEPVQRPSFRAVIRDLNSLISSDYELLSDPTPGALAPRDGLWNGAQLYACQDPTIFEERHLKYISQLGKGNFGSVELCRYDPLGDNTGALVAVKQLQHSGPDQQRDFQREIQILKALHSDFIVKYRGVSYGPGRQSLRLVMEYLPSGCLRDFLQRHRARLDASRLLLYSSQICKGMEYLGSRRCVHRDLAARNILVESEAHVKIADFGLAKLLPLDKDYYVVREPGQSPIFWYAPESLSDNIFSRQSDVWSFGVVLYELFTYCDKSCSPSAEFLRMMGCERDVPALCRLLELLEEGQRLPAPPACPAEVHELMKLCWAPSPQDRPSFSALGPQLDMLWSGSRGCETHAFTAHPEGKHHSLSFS
Description: JAK tyrosine kinase inhibitory activity in the presence of 1 mM ATP (ELISA), JAK3. Format: biochemical. Put shortly:
as §1
A general note: ELISA stands for enzyme-linked immunosorbent assay.

Assay [1] has as its system Aspergillus-induced airway inflammation model. Description: Inhibitory effect on Aspergillus-induced airway inflammation model. Format: in vivo. The settings on record: mice; for inhibition in vivo at 10000 µg/mL, 100 mg/kg: Mus musculus, Eosinophil, po, 240 h, 10 mg/mL suspension at 10 mL/kg twice a day Day 0 to Day 9, BALF collected at Day 10, read-out: Inhibition rate on count of invasive eosinophil in BALF (%); for Inhibition rate on count of invasive eosinophil in BALF (%): oral, 10 mg/mL suspension at 10 mL/kg twice a day Day 0 to Day 9, BALF collected at Day 10. On the procedure: Aspergillus fumigatus extracts (Greer laboratories, Inc.) were adjusted to 400 μg/mL with PBS. The Aspergillus fumigatus solutions thus prepared were administered to mice as nasal drops (50 μL) on Day 0, Day 1, Day 7 and Day 8. The nasal drop was administered one hour after the administration of test compounds in the morning. The test compound was administered twice a day in the morning and evening of Day 0 to Day 9. The test compound was suspended in 0.5% methylcellulose at 10 mg/mL, and orally administered at the dosage of 10 mL/kg. The bronchoalveolar lavage fluid (BALF) was collected at Day 10, and the total white blood cell count in BALF was measured using Celltac (NIHON KOHDEN). The ratio of eosinophil in total white blood cell was calculated using ADVIA 120 (Siemens Healthcare Diagnostics), and the ratio was multiplied by the total white blood cell count to determine the eosinophil count in BALF. The inhibition rate of the test compound was determined, assuming the inhibitory ratio in the treatment with Aspergillus fumigatus extract and 0.5% methylcellulose as 0% and the inhibitory ratio in the treatment without Aspergillus fumigatus extract but with 0.5% methylcellulose as 100%.

In the next assay the target is T3, JAK1 (Homo sapiens, UniProt P23458).
T3 construct: purchased Carna Biosciences, Inc
T3 sequence (P23458 whole entry): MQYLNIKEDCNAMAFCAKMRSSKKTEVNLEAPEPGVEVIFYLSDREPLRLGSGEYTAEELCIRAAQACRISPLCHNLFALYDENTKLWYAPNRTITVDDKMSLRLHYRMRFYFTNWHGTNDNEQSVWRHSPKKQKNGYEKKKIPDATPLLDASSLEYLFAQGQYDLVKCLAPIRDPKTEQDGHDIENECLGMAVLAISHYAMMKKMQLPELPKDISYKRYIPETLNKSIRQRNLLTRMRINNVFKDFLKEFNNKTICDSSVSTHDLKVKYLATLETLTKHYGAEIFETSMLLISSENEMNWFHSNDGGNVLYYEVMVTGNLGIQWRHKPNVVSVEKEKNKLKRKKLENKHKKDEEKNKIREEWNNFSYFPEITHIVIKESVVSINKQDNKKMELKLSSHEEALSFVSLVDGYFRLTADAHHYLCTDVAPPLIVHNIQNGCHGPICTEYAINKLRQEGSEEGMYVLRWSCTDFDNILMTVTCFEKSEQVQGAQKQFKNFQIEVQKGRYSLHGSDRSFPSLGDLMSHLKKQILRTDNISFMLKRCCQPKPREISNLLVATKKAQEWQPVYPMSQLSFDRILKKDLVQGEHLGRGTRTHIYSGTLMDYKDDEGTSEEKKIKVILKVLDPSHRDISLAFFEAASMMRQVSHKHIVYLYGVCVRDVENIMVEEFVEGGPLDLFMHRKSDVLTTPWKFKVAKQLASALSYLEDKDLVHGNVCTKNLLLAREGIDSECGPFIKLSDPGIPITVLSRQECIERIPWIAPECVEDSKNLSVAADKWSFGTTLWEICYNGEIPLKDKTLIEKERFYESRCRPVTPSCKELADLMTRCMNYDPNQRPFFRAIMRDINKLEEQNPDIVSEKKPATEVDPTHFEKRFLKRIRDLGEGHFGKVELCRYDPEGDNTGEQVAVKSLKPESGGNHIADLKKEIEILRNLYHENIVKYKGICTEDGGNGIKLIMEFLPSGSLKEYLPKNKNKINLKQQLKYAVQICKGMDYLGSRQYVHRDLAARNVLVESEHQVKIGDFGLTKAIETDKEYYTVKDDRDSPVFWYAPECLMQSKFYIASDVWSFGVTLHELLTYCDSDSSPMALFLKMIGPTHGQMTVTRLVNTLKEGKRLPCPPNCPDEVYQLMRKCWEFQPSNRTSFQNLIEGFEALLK
Briefly: JAK tyrosine kinase inhibitory activity in the presence of 1 mM ATP (ELISA), JAK1. The format is biochemical. Put shortly: as §1

T1 sequence (O60674 whole entry): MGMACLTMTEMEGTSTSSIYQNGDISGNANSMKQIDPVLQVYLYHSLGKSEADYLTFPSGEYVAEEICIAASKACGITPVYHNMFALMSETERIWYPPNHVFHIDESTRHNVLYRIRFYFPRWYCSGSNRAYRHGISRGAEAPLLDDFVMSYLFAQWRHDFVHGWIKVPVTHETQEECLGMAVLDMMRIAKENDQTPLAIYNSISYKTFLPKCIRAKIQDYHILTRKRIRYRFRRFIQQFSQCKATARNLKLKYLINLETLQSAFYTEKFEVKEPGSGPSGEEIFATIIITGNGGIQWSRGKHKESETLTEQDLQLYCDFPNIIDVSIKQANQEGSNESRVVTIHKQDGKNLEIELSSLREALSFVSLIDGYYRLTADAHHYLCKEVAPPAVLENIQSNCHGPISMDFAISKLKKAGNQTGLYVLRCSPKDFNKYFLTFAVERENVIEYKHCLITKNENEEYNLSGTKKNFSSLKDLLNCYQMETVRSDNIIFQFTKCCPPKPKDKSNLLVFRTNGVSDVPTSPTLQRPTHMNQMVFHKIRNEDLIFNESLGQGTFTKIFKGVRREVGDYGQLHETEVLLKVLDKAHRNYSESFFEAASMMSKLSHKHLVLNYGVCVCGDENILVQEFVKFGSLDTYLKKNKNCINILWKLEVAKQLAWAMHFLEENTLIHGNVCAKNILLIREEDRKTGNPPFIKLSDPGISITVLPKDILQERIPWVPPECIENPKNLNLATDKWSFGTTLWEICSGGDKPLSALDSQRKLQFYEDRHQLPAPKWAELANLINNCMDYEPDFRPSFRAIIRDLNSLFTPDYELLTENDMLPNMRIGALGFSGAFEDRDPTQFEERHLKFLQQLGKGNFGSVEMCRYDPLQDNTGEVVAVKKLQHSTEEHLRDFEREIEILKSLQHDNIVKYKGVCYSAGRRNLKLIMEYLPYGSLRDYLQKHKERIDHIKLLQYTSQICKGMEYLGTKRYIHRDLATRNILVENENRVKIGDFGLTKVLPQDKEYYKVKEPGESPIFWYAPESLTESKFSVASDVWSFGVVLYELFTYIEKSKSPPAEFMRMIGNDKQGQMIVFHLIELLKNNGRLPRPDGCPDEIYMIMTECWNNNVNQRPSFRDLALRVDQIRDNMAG

On to `C[C@@H](C1CC1)N(C)c1cc(C(=O)N2CCC(NC(=O)C3CC3)CC2)nc(-c2cnn3ccsc23)n1` [Example 33, N-(1-{[6-{[(1S)-1-Cyclopropylethyl](methyl)amino}-2-(pyrazolo[5,1-b][1,3]thiazol-7-yl)pyrimidin-4-yl]carbonyl}piperidin-4-yl)cyclopropanecarboxamide hydrochloride], for which the IC50 (usually the midpoint of a concentration-inhibition curve) is 1700 nM on JAK2, 1700 nM on JAK3 and 130 nM at JAK1. In addition, the inhibition in vivo at 10000 µg/mL, 100 mg/kg in assay [1] was 37%.

For the molecule `CC(C)OC(=O)NC1CCN(C(=O)c2cc(N[C@@H](C)C3CC3)nc(-c3cnn4ccsc34)n2)CC1` [Example 41, Propan-2-yl (1-{[6-{[(1S)-1-cyclopropylethyl]amino}-2-(pyrazolo[5,1-b][1,3]thiazol-7-yl)pyrimidin-4-yl]carbonyl}piperidin-4-yl)carbamate], the IC50 at JAK2 was 2700 nM; at JAK3, over 10000 nM; on JAK1, 96 nM. For the same molecule, in assay [1], the inhibition in vivo at 10000 µg/mL, 100 mg/kg was 51%.

Turning to `CC(C)(C)Nc1cc(C(=O)N2CCC(O)CC2)nc(-c2cnn3ccsc23)n1` [Example 58, [6-(tert-Butylamino)-2-(pyrazolo[5,1-b][1,3]thiazol-7-yl)pyrimidin-4-yl](4-hydroxypiperidin-1-yl)methanone], the figures for the IC50 on JAK2, on JAK3 and on JAK1 were 2900 nM, over 10000 nM and 400 nM, respectively. Moreover, the inhibition in vivo at 10000 µg/mL, 100 mg/kg in assay [1] was 37%.

For `C[C@@H](Nc1cc(C(=O)N2CCC(O)CC2)nc(-c2cnn3ccsc23)n1)C(C)(C)C` [Example 62, [6-{[(2R)-3,3-Dimethylbutan-2-yl]amino}-2-(pyrazolo[5,1-b][1,3]thiazol-7-yl)pyrimidin 4 yl](4-hydroxypiperidin-1-yl)methanone hydrochloride], the IC50 came out at 1000 nM on JAK2, 1100 nM at JAK3 and 10 nM at JAK1. Also, the inhibition in vivo at 10000 µg/mL, 100 mg/kg in assay [1] was 36%.

As for `CCOC(=O)NC1CCN(C(=O)c2cc(N[C@H](C)C3CC3)nc(-c3cnn4ccsc34)n2)CC1` [Example 73, Ethyl (1-{[6-{[(1R)-1-cyclopropylethyl]amino}-2-(pyrazolo[5,1-b][1,3]thiazol-7-yl)pyrimidin-4-yl]carbonyl}piperidin-4-yl)carbamate], the results for the IC50 on JAK2, at JAK3 and at JAK1 were 3200 nM, 2200 nM and 73 nM, respectively. In assay [1], the “Inhibition rate on count of invasive eosinophil in BALF (%)” value was determined as 64%.

For `CCOC(=O)NC1CCN(C(=O)c2cc(N[C@H](C)C3CC3)nc(-c3cnn4ccsc34)n2)CC1` [Example 74, Ethyl (1-{[6-{[(1R)-1-cycloproropylethyl]amino}-2-(pyrazolo[5,1-b][1,3]thiazol-7-yl)pyrimidin-4-yl]carbonyl}piperidin-4-yl)carbamate hydrochloride], the results for the IC50 at JAK2, on JAK3 and at JAK1 were 3100 nM, 2600 nM and 95 nM, respectively. Further, in assay [1] (hydrochloride), the “Inhibition rate on count of invasive eosinophil in BALF (%)” value was determined as 34%.

On to `CCC(CC)Nc1cc(C(=O)N2CCC(O)CC2)nc(-c2cnn3ccsc23)n1` [Example 81, (4-Hydroxypiperidin-1-yl) [6-(pentan-3-ylamino)-2-(pyrazolo[5,1-b][1,3]thiazol-7-yl)pyrimidin-4-yl]methanone hydrochloride], for which the IC50 at JAK2 stood at 2200 nM; on JAK3, 3300 nM; on JAK1, 1600 nM. Also, the inhibition in vivo at 10000 µg/mL, 100 mg/kg in assay [1] was 43%.

For the molecule `COC(=O)NC1CCN(C(=O)c2cc(NCC(C)(C)C)nc(-c3cnn4ccsc34)n2)CC1` [Example 87, Methyl [1-({6-[(2,2-dimethylpropyl)amino]-2-(pyrazolo[5,1-b][1,3]thiazol-7-yl)pyrimidin-4-yl}carbonyl)piperidin-4-yl]carbamate hydrochloride], the IC50 on JAK2 turned out to be 1600 nM; on JAK3, 9500 nM; on JAK1, 250 nM. The inhibition in vivo at 10000 µg/mL, 100 mg/kg in assay [1] came to 24%.

In the case of `C[C@@H](Nc1cc(C(=O)N2CCC(NC(=O)OCC(F)F)CC2)nc(-c2cnn3ccsc23)n1)C1CC1` [Example 96, 2,2-Difluoroethyl (1-{[6-{[(1R)-1-cyclopropylethyl]amino}-2-(pyrazolo[5,1-b][1,3]thiazol-7-yl)pyrimidin-4-yl]carbonyl}piperidin-4-yl)carbamate hydrochloride], the figures for the IC50 at JAK2, at JAK3 and on JAK1 were 1000 nM, 2200 nM and 250 nM, respectively. Besides, the inhibition in vivo at 10000 µg/mL, 100 mg/kg in assay [1] amounted to 51%.

As for `C[C@@H](Nc1cc(C(=O)N2CCC(NC(=O)OCC(F)F)CC2)nc(-c2cnn3ccsc23)n1)C(C)(C)C` [Example 97, 2,2-Difluoroethyl (1-{[6-{[(2R)-3,3-dimethylbutan-2-yl]amino}-2-(pyrazolo[5,1-b][1,3]thiazol-7-yl)pyrimidin-4-yl]carbonyl}piperidin-4-yl)carbamate hydrochloride], the IC50 came out at 1300 nM at JAK2, 2700 nM at JAK3 and 210 nM at JAK1. Also, the inhibition in vivo at 10000 µg/mL, 100 mg/kg in assay [1] was determined as 43%.

As to `CC[C@H](C)Nc1cc(C(=O)N2CCC(NC(=O)OC)CC2)nc(-c2cnn3ccsc23)n1` [Example 125, Methyl [1-({6-[(2S)-butan-2-ylamino]-2-(pyrazolo[5,1-b][1,3]thiazol-7-yl)pyrimidin-4-yl}carbonyl)piperidin-4-yl]carbamate hydrochloride], the values for the IC50 on JAK2, on JAK3 and on JAK1 were 4700 nM, over 10000 nM and 210 nM, respectively. For the same molecule, in assay [1], the inhibition in vivo at 10000 µg/mL, 100 mg/kg is 35%.

For `CC[C@@H](C)Nc1cc(C(=O)N2CCC(NC(=O)OC)CC2)nc(-c2cnn3ccsc23)n1` [Example 126, Methyl [1-({6-[(2R)-butan-2-ylamino]-2-(pyrazolo[5,1-b][1,3]thiazol-7-yl)pyrimidin-4-yl}carbonyl)piperidin-4-yl]carbamate], the IC50 is over 10000 nM at JAK2, over 10000 nM on JAK3 and 820 nM at JAK1. Also, in assay [1], the inhibition in vivo at 10000 µg/mL, 100 mg/kg came to 57%.
